Laboratory results as given in paper PMC6534253, “Stereoselective pharmacokinetic and pharmacodynamic analysis of a CNS-active sulphamoylphenyl carbamate derivative” (Journal of Enzyme Inhibition and Medicinal Chemistry, 2019).
One block for each compound: values may come before it.

Columns and labels:
[1] = Water solubility; type: physicochemical
[2] = Amount excreted unchanged in urine; type: in vivo, rat; conditions: urine up to 6 h after dosing
Description: MSPC urine concentrations were quantified by the same HPLC assay as its plasma assay.
(§1) The PK parameters of each compound were calculated by non-compartmental analysis based on statistical moment theory using the PK software Phoenix Winnonlin Tripos L.P. (Pharsight Co., Mountain View, CA) as previously described. MSPC amount excreted unchanged in the urine was calculated by multiplying its urine concertino by the excreted urine volume for up to 6 h after dosing.

[3] = Pharmacokinetics from plasma levels after i.p. administration to rats; type: in vivo, rat; conditions: for Vd/F: read-out: Vss/F
Description: (§2) The pharmacokinetics (PK) of racemic-MSPC and its two individual enantiomers were studied following i.p. (80 mg/kg) to rats and their major PK parameters were estimated.
(§3) The study details were as described previously[8] and plasma and brain levels of racemic-MSPC and it individual enantiomers were monitored at: 20, 40, 60, 90, 120, 160, 180, 200, 220, 260, 320, and 360 min after dosing.
(§4) Plasma and brain concentrations of each compound were quantified by an HPLC assay. The HPLC analysis was performed on a system (2695 Separation Module; Waters, Milford, MA) with a photodiode array UV detector (2996 PDA Detector; Waters, Milford, MA). Conditioned as follows: Kinetex, 5 u EVO C18 100 A, 150*4.6 mm column (Phenomenex®, Torrance, CA). Linear gradients (5–95% acetonitrile content) with H2O (0.1% formic acid) and acetonitrile were used as the eluents with flow rate of 1 ml/min at 20 °C. The compounds and the internal standard were detected at 250 nm. Plasma and brain concentrations of MSPC and its two individual enantiomers were quantified by assay that its extraction method was previously described.
as §1

[4] = biological target: hCA IV (Homo sapiens, UniProt P22748); assay: Stopped flow CO2 hydrase assay, hCA IV; type: biochemical; conditions: mean from three assays, stopped flow technique
Description: (§5) The CA inhibition of MSPC and its individual enantiomers were assessed by a stopped flow CO2 hydrase assay as previously described.

[5] = biological target: hCA VII (Homo sapiens, UniProt P43166); assay: Stopped flow CO2 hydrase assay, hCA VII; type: biochemical; conditions: mean from three assays, stopped flow technique
Description: as §5

[6] = Pharmacokinetics from brain levels after i.p. administration to rats; type: in vivo, rat; conditions: for AUCbrain: as used in the BPR calculation; for Vd/F: read-out: Vss/F
Description: as §2, §3, §4, §1

[7] = tested on: maximal electroshock seizure (MES); design: method as in PMID 28275953; conditions: cited from earlier work
[8] = biological target: hCA I (Homo sapiens, UniProt P00915); assay: Stopped flow CO2 hydrase assay, hCA I; type: biochemical; conditions: for Ki: mean from three assays, stopped flow technique
Description: as §5

[9] = biological target: hCA II (Homo sapiens, UniProt P00918); assay: Stopped flow CO2 hydrase assay, hCA II; type: biochemical; conditions: for Ki: mean from three assays, stopped flow technique
Description: as §5

[10] = tested on: maximal electroshock seizure (MES); assay: Rat maximal electroshock (MES) anticonvulsant test; type: in vivo
From the text: The experiments at the MES model were done in male Sprague-Dawley rats (8 rats per dose) weighing 100−120 g (Charles River Laboratories, Wilmington, MA) as previously described.

[11] = rat, ip, plasma, i.p. 80 mg/kg, mean
[12] = rat, plasma, ip, 80 mg/kg, as used in the BPR calculation, i.p. 80 mg/kg, read-out: AUCplasma
[13] = rat, plasma, ip, 80 mg/kg, plasma, i.p. 80 mg/kg, mean, read-out: AUC
[14] = rat, ip, brain, rats, i.p. 80 mg/kg, mean
[15] = plasma, i.p. 80 mg/kg, mean, listed as (R)-enantiomer, 80 mg/kg
[16] = brain, rats, i.p. 80 mg/kg, mean, listed as (R)-enantiomer, 80 mg/kg
[17] = brain, rats, i.p. 80 mg/kg, mean, listed as (S)-enantiomer, 80 mg/kg

Chain of hCA IV (P22748 19-312): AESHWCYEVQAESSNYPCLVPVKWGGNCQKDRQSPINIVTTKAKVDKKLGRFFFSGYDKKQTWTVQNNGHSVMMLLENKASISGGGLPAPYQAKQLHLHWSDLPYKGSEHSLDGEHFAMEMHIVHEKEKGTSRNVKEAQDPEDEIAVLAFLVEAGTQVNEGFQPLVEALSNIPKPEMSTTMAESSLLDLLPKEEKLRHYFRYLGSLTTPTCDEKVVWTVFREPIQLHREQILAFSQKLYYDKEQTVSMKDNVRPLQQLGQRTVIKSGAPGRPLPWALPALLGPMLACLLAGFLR
Chain of hCA VII (P43166 whole entry): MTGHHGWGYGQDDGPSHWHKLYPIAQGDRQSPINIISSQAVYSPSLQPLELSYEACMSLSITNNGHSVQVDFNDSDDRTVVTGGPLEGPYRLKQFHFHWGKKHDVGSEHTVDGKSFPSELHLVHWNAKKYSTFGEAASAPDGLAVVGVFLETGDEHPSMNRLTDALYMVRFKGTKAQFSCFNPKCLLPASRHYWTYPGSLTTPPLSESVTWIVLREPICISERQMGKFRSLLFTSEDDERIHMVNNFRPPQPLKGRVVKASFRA
Chain of hCA I (P00915 whole entry): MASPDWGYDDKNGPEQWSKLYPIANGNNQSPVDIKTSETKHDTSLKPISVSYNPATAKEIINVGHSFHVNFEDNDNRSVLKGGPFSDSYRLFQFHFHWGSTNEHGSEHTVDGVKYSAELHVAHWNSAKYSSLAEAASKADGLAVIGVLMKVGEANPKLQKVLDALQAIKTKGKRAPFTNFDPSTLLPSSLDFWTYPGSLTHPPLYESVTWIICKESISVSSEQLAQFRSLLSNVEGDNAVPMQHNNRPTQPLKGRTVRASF

Structure (SMILES): CCC(C)CCOC(=O)Nc1ccc(S(N)(=O)=O)cc1 (racemic) [MSPC (racemate), 3-Methylpentyl(4-sulphamoylphenyl)carbamate]
- water solubility [1]: low water solubility
- dose excreted unchanged in urine [2]: Less than 0.1%
- half-life [3, 11]: 2.1 h
- CL/F ([3]; rat, ip, plasma, i.p. 80 mg/kg, mean, read-out: CL/F (converted)): 11.7 mL/min/kg
- Cmax ([3]; rat, ip, plasma, i.p. 80 mg/kg, mean, read-out: Cmax): 10000 ng/mL
- Vd/F [3, 11]: 2.2 L/kg
- Tmax ([3]; rat, ip, plasma, i.p. 80 mg/kg, mean, read-out: tmax): 1.3 h
- AUC [3, 12]: 28500 ng·h/mL
- AUC [3, 13]: 29000 ng·h/mL
- Ki [4]: 750 nM
- Ki [5]: 351 nM
- AUCbrain ([6]; rats, i.p. 80 mg/kg): 52.8
- Kp ([6]; rat, brain, ip, AUCbrain/AUCplasma, rats, i.p. 80 mg/kg, read-out: brain-to-plasma-(AUC)-ratio (BPR)): 1.85
- half-life [6, 14]: 1.9 h
- AUC ([6]; rat, ip, brain, rats, i.p. 80 mg/kg, mean, read-out: AUC): 53000 ng·h/mL
- CL/F ([6]; rat, ip, brain, rats, i.p. 80 mg/kg, mean, read-out: CL/F (converted)): 6.67 mL/min/kg
- Cmax ([6]; rat, ip, brain, rats, i.p. 80 mg/kg, mean, read-out: Cmax): 18000 ng/mL
- Vd/F [6, 14]: 1 L/kg
- Tmax ([6]; rat, ip, brain, rats, i.p. 80 mg/kg, mean, read-out: tmax): 1.6 h
- rat-MES-ED50 (i.p.) ([7]; i.p.): 13 mg/kg
- rat-MES-ED50 (po) ([7]; po): 28 mg/kg
- Ki [8]: 77 nM
- Ki [9]: 7.6 nM

- higher clearance ([3]; compared to (S)-MSPC and racemic-MSPC): 29%
- plasma exposure compared to (S)-MSPC ([3]; i.p. 80 mg/kg): 78%
- AUC [3, 15]: 23 mg/L/h
- CL/F [3, 15]: 15 mL/min/kg
- Cmax [3, 15]: 10000 ng/mL
- Tmax [3, 15]: 1.0 h
- Vss/F [3, 15]: 3.2 l/kg^−1
- t1/2 [3, 15]: 2.5 h
- Ki [4]: 810 nM
- Ki [5]: 170 nM
- brain-to-plasma-(AUC)-ratio (BPR) ([6]; AUCbrain/AUCplasma, rats, i.p. 80 mg/kg, listed as (R)-enantiomer, 80 mg/kg): 2.07
- AUC [6, 16]: 47 mg/L/h
- CL/F [6, 16]: 6.7 mL/min/kg
- Cmax [6, 16]: 16000 ng/mL
- Tmax [6, 16]: 1.0 h
- Vss/F [6, 16]: 1.4 l/kg^−1
- t1/2 [6, 16]: 2.3 h
- times higher BPR than its enantiomer ([6]; versus (S)-MSPC): 2.6
- Ki [8]: 34.1 nM
- times more effective inhibitor than (S)-MSPC against hCA I ([8]; ratio of Ki versus (S)-MSPC): 3.8
- Ki [9]: 3.3 nM
- times more effective inhibitor than (S)-MSPC against hCA II ([9]; ratio of Ki versus (S)-MSPC): 6.1
Structure (SMILES): CC[C@@H](C)CCOC(=O)Nc1ccc(S(N)(=O)=O)cc1 [(R)-MSPC, 3-methylpentyl(4-sulphamoylphenyl)carbamate]
- rat-MES (po)-ED50 [10]: 30 mg/kg

- AUC [3, 12]: 29000 ng·h/mL
- half-life ([3]; rat, plasma, ip, 80 mg/kg, i.p. 80 mg/kg, mean): 2.3 h
- AUC [3, 13]: 29000 ng·h/mL
- CL/F ([3]; rat, plasma, ip, 80 mg/kg, plasma, i.p. 80 mg/kg, mean, read-out: CL/F (converted)): 11.7 mL/min/kg
- Cmax ([3]; rat, plasma, ip, 80 mg/kg, plasma, i.p. 80 mg/kg, mean, read-out: Cmax): 7600 ng/mL
- Vd/F ([3]; rat, plasma, ip, 80 mg/kg, plasma, i.p. 80 mg/kg, mean): 2.3 L/kg
- Tmax ([3]; rat, plasma, ip, 80 mg/kg, plasma, i.p. 80 mg/kg, mean, read-out: tmax): 1.3 h
- Ki [4]: 593 nM
- Ki [5]: 744 nM
- brain-to-plasma-(AUC)-ratio (BPR) ([6]; AUCbrain/AUCplasma, rats, i.p. 80 mg/kg, listed as (S)-enantiomer, 80 mg/kg): 0.79
- AUCbrain ([6]; rats, i.p. 80 mg/kg, listed as (S)−enantiomer, 80 mg/kg): 22.8
- AUC [6, 17]: 23 mg/L/h
- CL/F [6, 17]: 15 mL/min/kg
- Cmax [6, 17]: 7000 ng/mL
- Vd/F ([6]; rat, brain, ip, 80 mg/kg, brain, rats, i.p. 80 mg/kg, mean): 2.2 L/kg
- Tmax ([6]; rat, brain, ip, 80 mg/kg, brain, rats, i.p. 80 mg/kg, mean, read-out: tmax): 0.6 h
- half-life ([6]; rat, brain, ip, 80 mg/kg, rats, i.p. 80 mg/kg, mean): 1.7 h
- Ki [8]: 130 nM
- Ki [9]: 20.3 nM
Structure (SMILES): CC[C@H](C)CCOC(=O)Nc1ccc(S(N)(=O)=O)cc1 [(S)-MSPC, 3-methylpentyl(4-sulphamoylphenyl)carbamate]
- ED50 ([10]; Rattus norvegicus, po): 24 mg/kg
